{"source": "patent US7745570B2", "about": "“PH dependent adhesive peptides” (Kansas State University Research Foundation, priority 2005, dated 2010)", "key": {"[1]": {"conditions": "modified Wimley-White scale, side chain values; cited from earlier work"}, "[2]": {"conditions": "Wimley and White Hydrophobicity Scale; cited from earlier work"}, "[3]": {"assay": "Solubility and ionisation of peptides at the test pH values", "format": "physicochemical", "conditions": "for Solubility: aqueous peptide solutions at pH 2.2, 6.8, 12.0"}, "[4]": {"assay": "Viscosity of peptide solutions, Brookfield viscometer", "format": "physicochemical", "conditions": "peptide 4%, 20 rpm, RT", "procedure": "Viscosity: Viscosity of peptides at different pH was measured in a Brookfield RVDV-III 5^+ viscometer (Middleboro, Mass.). All the measurements were taken at 2.5 minute intervals using 8 mL samples at ambient temperature with a spindle SC4-21 operating at 20 rpm. Five data points were averaged for each reported value."}, "[5]": {"assay": "MALDI mass spectrometry of dried/hot-pressed peptide for hydrolysis of peptide bonds", "format": "physicochemical", "conditions": "4% peptide pH 12, dried at RT or 130° C. without pressure or 130° C. with pressure", "procedure": "The same K3h9K3 samples used in the FTIR studies were analyzed by matrix assisted, laser desorption mass spectrometry. At elevated pH and temperature, the spontaneous hydrolysis of peptide bonds could occur. Dried samples taken from glass slides treated with 4% peptide solutions at pH 12 and dried at either room temperature or 130° C. without pressure as well as dried at 130° C. with pressure were dissolved in acetonitrile containing matrix and transferred to mass spectral target slides."}, "[6]": {"assay": "Circular dichroism at 25° C. to 75° C. (conformational stability)", "format": "physicochemical", "conditions": "250 μM, pH 12, 25° C. to 75° C.", "procedure": "Circular Dichroism Spectra: The data set out in FIG. 4 were collected according to the following protocol. The circular dichroic spectra were recorded on a J-720 (Jasco, Japan) spectropolarimeter with a Neslab RTE-111M circulator using a 1.0 mm quartz cuvette from 260 to 180 nm. The spectra are an average of five scans recorded at a rate of 20 nm/min with a 0.2 nm step interval. For circular dichroism measurements, 1 mL samples of synthetic peptide were prepared with a different pH buffer solution. The following buffers were used: 60 mM glycine, 60 mM NaCl, 40 mM HCl, pH 2.2; 50 mM glycine, 50 mM NaCl, 0.2 mM NaOH, pH 6.8; and 45 mM glycine, 45 mM NaCl, 55 mM NaOH, pH 12. The final peptide concentration was 250 μM. All spectra were corrected by subtracting the baseline of the buffer solution recorded under the same condition. Unless otherwise noted, spectra were recorded at room temperature. The CD absorbances were expressed as the mean residue ellipticity in units of degrees cm^2 dmol^−1. Temperatures were controlled with a refrigerated circulator bath (Neslab RTE-111M). Temperatures were controlled between 25° C. to 75° C."}}, "note": "“Also recorded” adds a separate entry of the source. Where no end group is shown, it is not given here."}
{"compound": "C[C@H](N)C(=O)O", "note": "[Ala, alanine]", "values": [{"measurement": "ΔGresidue value", "setting": "[1]", "value": -0.5, "unit": "kcal/mol"}, {"measurement": "ΔG for transfer from water to organic phase", "setting": "[2]", "value": 0.50, "unit": "kcal/mol"}]}
{"compound": "HHHFLIVIGSIIHHH [Peptide H3h9H3]", "values": [{"measurement": "Solubility", "setting": "[3]", "value": "insoluble at all pH values"}]}
{"compound": "KKK-FLIVIGSII-EEE (KKKFLIVIGSIIEEE) [Peptide K3h9E3]", "values": [{"measurement": "Viscosity", "setting": "[4]; pH 2.2", "value": 210, "unit": "mPa · s"}, {"measurement": "Viscosity", "setting": "[4]; pH 6.8", "value": 305, "unit": "mPa · s"}, {"measurement": "Viscosity", "setting": "[4]; pH 12", "value": 20, "unit": "mPa · s"}]}
{"compound": "CSCC[C@H](N)C(=O)O", "note": "[Met]", "values": [{"measurement": "ΔG for transfer from water to organic phase", "setting": "[2]", "value": -0.67, "unit": "kcal/mol"}]}
{"compound": "RRRFLIVIGSIIRRR [Peptide R3h9R3]", "values": [{"measurement": "Ionisation state", "setting": "[3]; pH 12.0", "value": "not fully ionized"}]}
{"compound": "NCC(=O)O", "note": "[Gly]", "values": [{"measurement": "ΔG for transfer from water to organic phase", "setting": "[2]", "value": 1.15, "unit": "kcal/mol"}]}
{"compound": "EEE-FLIVIGSII-KKK (EEEFLIVIGSIIKKK) [Peptide E3h9K3]", "values": [{"measurement": "Viscosity", "setting": "[4]; pH 2.2", "value": 190, "unit": "mPa · s"}, {"measurement": "Viscosity", "setting": "[4]; pH 6.8", "value": 245, "unit": "mPa · s"}, {"measurement": "Viscosity", "setting": "[4]; pH 12", "value": 20, "unit": "mPa · s"}]}
{"compound": "CC(C)[C@H](N)C(=O)O", "note": "[Val, valine]", "values": [{"measurement": "ΔGresidue value", "setting": "[1]", "value": 0.46, "unit": "kcal/mol"}, {"measurement": "ΔG for transfer from water to organic phase", "setting": "[2]", "value": -0.46, "unit": "kcal/mol"}]}
{"compound": "KKK-FLIVIGSII-KKK (KKKFLIVIGSIIKKK) [Peptide K3h9K3]", "values": [{"measurement": "Viscosity", "setting": "[4]; pH 2.2", "value": 20, "unit": "mPa · s"}, {"measurement": "Viscosity", "setting": "[4]; pH 6.8", "value": 20, "unit": "mPa · s"}, {"measurement": "Viscosity", "setting": "[4]; pH 12", "value": 290, "unit": "mPa · s"}, {"measurement": "Peptide integrity (hydrolysis of peptide bonds)", "setting": "[5]", "value": "intact monomer however no detectable amounts of fragmented peptide"}, {"measurement": "Effect of temperature on CD spectra (conformation)", "setting": "[6]", "value": "did not alter the CD spectra"}]}
{"compound": "N[C@@H](Cc1ccccc1)C(=O)O", "note": "[Phe]", "values": [{"measurement": "ΔG for transfer from water to organic phase", "setting": "[2]", "value": -1.71, "unit": "kcal/mol"}]}
{"compound": "N[C@@H](CO)C(=O)O", "note": "[Ser]", "values": [{"measurement": "ΔG for transfer from water to organic phase", "setting": "[2]", "value": 0.46, "unit": "kcal/mol"}]}
{"compound": "EEEFLIVIGSIIEEE-OH [Peptide E3h9E3, EEE-FLIVIGSII-EEE]", "values": [{"measurement": "Viscosity", "setting": "[4]; pH 12", "value": 20, "unit": "mPa · s"}, {"measurement": "Solubility", "setting": "[3]", "value": "insoluble below and somewhat above its pI; also recorded: insoluble at the two lower pH values"}]}
